Results from US20230365537A1, “POLO LIKE KINASE 4 INHIBITORS” (ORIC Pharmaceuticals, Inc., priority 2021, published 2023).
pIC50: −log10 of the molar value.

Key:
human recombinant PLK4 = human recombinant PLK4 (Homo sapiens (Human), UniProt O00444); test: PLK4 Biochemical Assay (ADP-Glo); conditions: 0.5 nM PLK4, 8.0 µM ATP, 4.7 µM MBP, 6 hours at RT
In short: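 Luminescent ADP-Glo detection quantified ADP production, with ATP depletion for 40 min and detection for 30 min at room temperature. Compound and PLK4 (1.0 nM stock addition) were preincubated 15 min in HEPES pH 7.5 buffer containing MgCl2, EGTA, DTT, Brij-35 and BSA. IC50 values were obtained by four-parameter nonlinear regression.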

CHP-134 cells = test: CHP134 CellTiter-Glo (CTG) Assay; format: cell-based; conditions: Homo sapiens, CHP-134, 120 h, 5 days, viable cells by CellTiter-Glo
In short: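 Nine-point 1:3 dilution series, diluted into growth media, added in quadruplicate to CHP-134 cells plated 16 h earlier at 200 cells/well.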

[1] = target: human recombinant Aurora A (Homo sapiens (Human), UniProt O14965); test: Aurora A Kinase Biochemical Assay (ADP-Glo); conditions: ratio of Aurora A IC50 to PLK4 IC50 (selectivity)
[2] = target: human recombinant Aurora B (Homo sapiens (Human), UniProt Q96GD4); test: Aurora B Kinase Biochemical Assay (ADP-Glo); conditions: ratio of Aurora B IC50 to PLK4 IC50 (selectivity)
In short: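 IC50 derived by four-parameter nonlinear fit of ADP-Glo luminescence (ADP produced). Compound was preincubated 15 min at RT with 20 nM recombinant human Aurora B, in 50 mM HEPES pH 7.5, 10 mM MgCl2, 1 mM EGTA, 1 mM DTT, 0.01% Brij-35/BSA.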

Sequence of human recombinant Aurora A (O14965 whole entry): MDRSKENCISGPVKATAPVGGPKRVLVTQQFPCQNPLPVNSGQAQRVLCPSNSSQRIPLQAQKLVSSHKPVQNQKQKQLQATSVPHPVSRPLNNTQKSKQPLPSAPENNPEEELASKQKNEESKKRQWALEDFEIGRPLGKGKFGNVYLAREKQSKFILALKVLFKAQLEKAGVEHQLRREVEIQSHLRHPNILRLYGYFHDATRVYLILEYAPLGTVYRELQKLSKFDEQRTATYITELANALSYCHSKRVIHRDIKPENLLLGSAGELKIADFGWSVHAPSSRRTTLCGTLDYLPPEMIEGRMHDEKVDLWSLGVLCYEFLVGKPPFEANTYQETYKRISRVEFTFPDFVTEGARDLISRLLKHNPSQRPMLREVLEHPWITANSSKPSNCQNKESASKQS
Sequence of human recombinant Aurora B (Q96GD4 whole entry): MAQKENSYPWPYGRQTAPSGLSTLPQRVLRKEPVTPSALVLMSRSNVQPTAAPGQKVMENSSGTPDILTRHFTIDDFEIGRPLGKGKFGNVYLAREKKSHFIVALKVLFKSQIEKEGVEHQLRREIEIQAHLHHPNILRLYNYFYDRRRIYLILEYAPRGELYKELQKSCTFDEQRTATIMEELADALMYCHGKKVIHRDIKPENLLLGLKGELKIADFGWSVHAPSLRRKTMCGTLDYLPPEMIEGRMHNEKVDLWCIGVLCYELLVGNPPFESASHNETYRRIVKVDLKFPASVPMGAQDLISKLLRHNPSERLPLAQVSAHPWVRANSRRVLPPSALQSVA
Sequence of human recombinant PLK4 (O00444 whole entry): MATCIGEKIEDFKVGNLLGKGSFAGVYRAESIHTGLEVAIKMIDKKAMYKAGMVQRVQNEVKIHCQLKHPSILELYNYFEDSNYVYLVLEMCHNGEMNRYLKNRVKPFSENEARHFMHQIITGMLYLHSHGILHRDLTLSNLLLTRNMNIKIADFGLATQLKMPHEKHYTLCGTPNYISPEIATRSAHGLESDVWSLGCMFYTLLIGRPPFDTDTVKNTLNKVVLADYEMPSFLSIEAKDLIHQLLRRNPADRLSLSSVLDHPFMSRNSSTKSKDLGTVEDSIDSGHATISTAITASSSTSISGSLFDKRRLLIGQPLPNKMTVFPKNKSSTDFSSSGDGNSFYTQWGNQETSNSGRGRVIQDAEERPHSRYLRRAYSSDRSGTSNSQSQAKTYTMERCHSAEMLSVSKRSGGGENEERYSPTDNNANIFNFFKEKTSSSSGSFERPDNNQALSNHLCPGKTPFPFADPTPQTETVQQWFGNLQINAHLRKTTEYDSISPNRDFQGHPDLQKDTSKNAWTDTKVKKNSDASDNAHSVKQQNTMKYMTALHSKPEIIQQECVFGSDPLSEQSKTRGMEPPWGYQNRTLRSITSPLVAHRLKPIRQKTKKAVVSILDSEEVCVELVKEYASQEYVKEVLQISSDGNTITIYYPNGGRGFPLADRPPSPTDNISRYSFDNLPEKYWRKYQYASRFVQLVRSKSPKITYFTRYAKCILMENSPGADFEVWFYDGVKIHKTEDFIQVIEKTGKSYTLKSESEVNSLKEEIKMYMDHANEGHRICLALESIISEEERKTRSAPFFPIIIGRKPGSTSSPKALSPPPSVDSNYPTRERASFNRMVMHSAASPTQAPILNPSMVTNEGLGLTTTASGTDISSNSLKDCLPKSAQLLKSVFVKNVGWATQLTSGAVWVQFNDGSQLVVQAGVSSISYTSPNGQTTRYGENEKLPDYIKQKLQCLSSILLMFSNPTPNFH

| SMILES | pIC50 (human recombinant PLK4) | pIC50 (CHP-134 cells) | [Aurora A IC50 (nM)]/[PLK4 IC50 (nM)] [1] | [Aurora B IC50 (nM)]/[PLK4 IC50 (nM)] [2] |
| --- | --- | --- | --- | --- |
| COc1ccc2c(c1)[C@]1(C[C@H]1c1ccc3c(Nc4nc(CCO)cnc4OC)n[nH]c3c1)C(=O)N2 [Example 56, (1R,2S)-2-(3-{[6-(2-hydroxyethyl)-3-methoxypyrazin-2-yl]amino}-1H-indazol-6-yl)-5′-methoxyspiro[cyclopropane-1,3′-indol]-2′(1′H)-one] | 8.42 | 5.57 | 1047.694 | 423.7686 |
| COc1ccc2c(c1)[C@]1(C[C@H]1c1ccc3c(Nc4ccc(C(=O)N5CC6CCC(C5)O6)nc4OC)n[nH]c3c1)C(=O)N2 [Example 246, (1R,2S)-5′-methoxy-2-(3-{[2-methoxy-6-(8-oxa-3-azabicyclo[3.2.1]octane-3-carbonyl)pyridin-3-yl]amino}-1H-indazol-6-yl)spiro[cyclopropane-1,3′-indol]-2′(1′H)-one] | 9.07 | 7.17 | 426.8090 | 176.8683 |
| COc1ccc2c(c1)[C@]1(C[C@H]1c1ccc3c(Nc4cc(S(=O)(=O)N5CCOCC5)ccc4OC)n[nH]c3c1)C(=O)N2 [Example 216, (1R,2S)-5′-methoxy-2-{3-[2-methoxy-5-(morpholine-4-sulfonyl)anilino]-1H-indazol-6-yl}spiro[cyclopropane-1,3′-indol]-2′(1′H)-one] | 8.57 | 6.12 | 7712 | 18601.19048 |
| COc1ccc2c(c1)[C@]1(C[C@H]1c1ccc3c(Nc4cc5c(cc4OC)C(=O)N(C)C5)n[nH]c3c1)C(=O)N2 [Example 265, (1R,2S)-5′-methoxy-2-{3-[(6-methoxy-2-methyl-1-oxo-2,3-dihydro-1H-isoindol-5-yl)amino]-1H-indazol-6-yl)spiro[cyclopropane-1,3′-indol]-2′(1′H)-one] | 8.70 | 5.97 | 686 | 725.3912 |
| COc1ccc2c(c1)[C@]1(C[C@H]1c1ccc3c(Nc4cc(C)cnc4OC)n[nH]c3c1)C(=O)N2 [Example 89, (1R,2S)-5′-methoxy-2-{3-[(2-methoxy-5-methylpyridin-3-yl)amino]-1H-indazol-6-yl}spiro[cyclopropane-1,3′-indol]-2′(1′H)-one] | 8.64 | 5.00 | 1736.729 | 314.3289 |
| CCOc1cc(S(C)(=O)=O)cnc1Nc1n[nH]c2cc([C@@H]3C[C@@]34C(=O)Nc3ccc(Cl)cc34)ccc12 [Example 276, (1R,2S)-5′-chloro-2-(3-{[3-ethoxy-5-(methanesulfonyl)pyridin-2-yl]amino}-1H-indazol-6-yl)spiro[cyclopropane-1,3′-indol]-2′(1′H)-one] | 8.58 | 5.39 | 377.9648 | 2173.2976 |
| COc1ccc2c(c1)[C@]1(C[C@H]1c1ccc3c(Nc4cc(S(=O)(=O)C(C)C)ccc4OC)n[nH]c3c1)C(=O)N2 [Example 178, (1R,2S)-5′-methoxy-2-{3-[2-methoxy-5-(propane-2-sulfonyl)anilino]-1H-indazol-6-yl}spiro[cyclopropane-1,3′-indol]-2′(1′H)-one] | 8.48 | 6.20 | 15179.1135 | 15179.1135 |
| COc1ccc2c(c1)[C@]1(C[C@H]1c1ccc3c(Nc4nc(C(C)C)cnc4OC)n[nH]c3c1)C(=O)N2 [Example 83, (1R,2S)-5′-methoxy-2-(3-{[3-methoxy-6-(propan-2-yl)pyrazin-2-yl]amino}-1H-indazol-6-yl)spiro[cyclopropane-1,3′-indol]-2′(1′H)-one] | 8.65 | 6.56 | 908.4004 | 333.3333 |
| COc1ccc2c(c1)[C@]1(C[C@H]1c1ccc3c(Nc4nc(C5CC5)nc(N5CC(O)C5)c4Cl)n[nH]c3c1)C(=O)N2 [Example 76, (1R,2S)-2-(3-{[5-chloro-2-cyclopropyl-6-(3-hydroxyazetidin-1-yl)pyrimidin-4-yl]amino)-1H-indazol-6-yl)-5′-methoxyspiro[cyclopropane-1,3′-indol]-2′(1′H)-one] | 9.36 | 7.03 | 3304.147 | 535.4839 |
| COc1ccc2c(c1)[C@]1(C[C@H]1c1ccc3c(Nc4nc(Cl)nc(N5CCOCC5)c4OC)n[nH]c3c1)C(=O)N2 [Example 48, (1R,2S)-2-(3-{[2-chloro-5-methoxy-6-(morpholin-4-yl)pyrimidin-4-yl]amino}-1H-indazol-6-yl)-5′-metboiyspiro[cyclopropane-1,3′-indol]-2′(1′H)-one] | 8.48 | 6.13 | 1948.123 | 292.3406 |
| CCOc1nc(C(=O)N(C)C)ccc1Nc1n[nH]c2cc([C@@H]3C[C@@]34C(=O)Nc3ccc(OC)cc34)ccc12 [Example 214, 6-ethoxy-5-({6-[(1R,2S)-5′-methoxy-2′-oxo-1′,2′-dihydrospiro[cyclopropane-1,3′-indol]-1-yl]-1H-indazol-3-yl}amino)-N,N-dimethylpyridine-2-carboxamide] | 9.00 | 7.49 | 953 | 59.0999 |
| CCOc1cc(S(=O)(=O)CC)cnc1Nc1n[nH]c2cc([C@@H]3C[C@@]34C(=O)Nc3ccc(OC)cc34)ccc12 [Example 274, (1R,2S)-2-(3-{[5-(Ethanesulfonyl)-3-ethoxypyridin-2-yl]amino}-1H-indazol-6-yl)-5′-methoxyspiro[cyclopropane-1,3′-indol]-2′(1′H)-one] | 9.12 | 7.14 | 2560.9436 | 961.3368 |
| COc1ccc2c(c1)[C@]1(C[C@H]1c1ccc3c(Nc4ccc(S(=O)(=O)N(C)C)nc4OC)n[nH]c3c1)C(=O)N2 [Example 222, 6-methoxy-5-({6-[(1R,2S)-5′-methoxy-2′-oxo-1′,2′-dihydrospiro[cyclopropane-1,3′-indol]-2-yl]-1H-indazol-3-yl}amino)-N,N-dimethylpyridine-2-sulfonamide] | 8.87 | 6.34 | 446.1368 | 546.4311 |
| COc1ccc2c(c1)[C@]1(C[C@H]1c1ccc3c(Nc4ncc(S(=O)(=O)C5CCOCC5)cc4OC)n[nH]c3c1)C(=O)N2 [Example 259, (1R,2S)-5′-methoxy-2-(3-{[3-methoxy-5-(oxane-4-sulfonyl)pyridin-2-yl]amino}-1H-indazol-6-yl)spiro[cyclopropane-1,3′-indol]-2′(1′H)-one] | 9.01 | 6.05 | 1294.8084 | 835.2904 |
| COc1ccc2c(c1)[C@]1(C[C@H]1c1ccc3c(Nc4nc(C#N)nc(N5CCS(=O)(=O)CC5)c4OC)n[nH]c3c1)C(=O)N2 [Example 62, 4-(l,l-dioxidothiomorpholino)-5-methoxy-6-((6-((lR,2S)-5′-methoxy-2′-oxospiro[cyclopropane-1,3′-indolin]-2-yl)-1H-indazol-3-yl)amino)pyrimidine-2-carbonitrile] | 7.77 | 5.00 | 540.9225 | 946.7771 |
